pIC50: −log10 of the molar value. Where a name gives a salt, the structure may show the parent alone.
How the values were obtained:
human LSD1 = human LSD1 (Homo sapiens, UniProt O60341); test: In vitro enzyme activity screening against LSD1 (HRP/Amplex Red fluorescence coupling enzyme method); format: biochemical; conditions: human LSD1, histone H3K4me peptide substrate 20 μM
Experimental: The purpose of this test was to detect the in vitro inhibitory activity of the compounds against LSD1. The enzyme used in this test was human LSD1, the standard substrate was histone H3K4me peptide (20 μM), the fluorescence coupling enzyme method was used to determine the activity of the compound by combining horseradish peroxidase (HRP) and fluorescent reagent Amplex Red to detect the H2O2 generation as a result of the reaction of LSD1. Compounds were tested in 10-dose IC50 mode with a 3-fold serial dilution starting at 10 μM. The enzyme and […] to start the reaction. Fluorescence detector: Envision, excitation wavelength: Ex/Em=530/590 […]

NCI-H1417 cells = test: Antiproliferation activity on NCI-H1417 cells (CellTiter-Glo, 10 days); format: cell-based, human; conditions: incubated for 10 days
Experimental: Experimental purpose: to detect the antiproliferation activity of the compounds on NCI-H1417 cells.
Experimental materials: RPMI 1640 culture medium, fetal bovine serum, Promega CellTiter-Glo reagent. NCI-H1417 cell line purchased from ATCC. Envision multi-label reader (PerkinElmer).
Experimental method: the compounds were dissolved to 10 mM, then the compounds were diluted 5 times with DMSO in a compound plate, the compounds were diluted 3-fold with Bravo from a starting concentration of 2 mM to the 10th concentration, 250 nL of the solutions were transferred to the upper and lower duplicate wells on a blank 384 cell plate by Echo transfer plate, cell suspension of per well/1000 cells/50 μL was added to the transferred 250 nL DMSO/compound, the compounds were diluted 200-fold, i.e., the initial action concentration was 10 μM. The cell plate was placed in a carbon dioxide incubator and incubated for 10 days. 25 μL of Promega CellTiter-Glo reagent was added to each well on the cell plate and was shaken at room temperature for 10 minutes to stabilize the luminescence signal. Readings were performed by PerkinElmer Envision multi-label analyzer.
Data analysis: the equation (Max-Ratio)/(Max-Min)*100% was used to convert the original data into the inhibition rate, the value of IC50 can be obtained by curve fitting of four-parameters (the 205 mode in XLFITS, iDBS).

[1] = target: T1, hERG potassium ion channel (Homo sapiens, UniProt Q12809); test: Inhibition test for hERG potassium ion channel (automatic patch-clamp, CHO-hERG cells); format: cell-based; conditions: Qpatch, highest test concentration 40 μM
T1 construct: expressed in transfected cells; host or cells: CHO-hERG cells
T1 sequence (Q12809 whole entry): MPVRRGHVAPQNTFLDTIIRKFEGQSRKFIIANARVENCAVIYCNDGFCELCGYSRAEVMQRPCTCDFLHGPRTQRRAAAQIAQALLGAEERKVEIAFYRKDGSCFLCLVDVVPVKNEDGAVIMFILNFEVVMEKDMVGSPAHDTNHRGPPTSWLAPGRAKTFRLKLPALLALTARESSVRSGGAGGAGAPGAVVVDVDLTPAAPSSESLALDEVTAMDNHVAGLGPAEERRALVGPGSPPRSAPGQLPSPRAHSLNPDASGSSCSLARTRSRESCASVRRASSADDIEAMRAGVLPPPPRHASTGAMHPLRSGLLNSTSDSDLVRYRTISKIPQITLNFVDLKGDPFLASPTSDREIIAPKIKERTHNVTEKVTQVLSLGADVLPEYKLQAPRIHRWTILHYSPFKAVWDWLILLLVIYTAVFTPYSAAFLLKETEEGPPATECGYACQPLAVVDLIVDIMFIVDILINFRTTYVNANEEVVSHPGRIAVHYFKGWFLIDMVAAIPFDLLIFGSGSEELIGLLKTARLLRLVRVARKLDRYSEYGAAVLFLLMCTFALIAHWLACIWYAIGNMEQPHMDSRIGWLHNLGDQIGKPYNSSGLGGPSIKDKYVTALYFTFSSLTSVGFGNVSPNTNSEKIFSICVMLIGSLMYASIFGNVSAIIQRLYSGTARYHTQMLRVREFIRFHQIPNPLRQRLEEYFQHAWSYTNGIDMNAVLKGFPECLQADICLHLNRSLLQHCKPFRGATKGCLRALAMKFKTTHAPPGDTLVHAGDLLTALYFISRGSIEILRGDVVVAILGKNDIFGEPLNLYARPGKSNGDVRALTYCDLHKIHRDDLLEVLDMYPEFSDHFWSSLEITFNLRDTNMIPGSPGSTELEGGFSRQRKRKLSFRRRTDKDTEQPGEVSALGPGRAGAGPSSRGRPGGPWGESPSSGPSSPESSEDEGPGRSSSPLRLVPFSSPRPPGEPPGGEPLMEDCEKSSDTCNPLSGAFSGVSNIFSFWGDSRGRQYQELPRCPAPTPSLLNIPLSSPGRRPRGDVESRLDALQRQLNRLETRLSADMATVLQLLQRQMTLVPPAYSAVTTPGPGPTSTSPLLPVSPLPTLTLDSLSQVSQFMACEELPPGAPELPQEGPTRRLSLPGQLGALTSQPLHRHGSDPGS
Experimental: Experimental purpose: to detect the effect of the embodiments to be tested on the potassium ion channel of hERG by using the fully automatic patch-clamp method.
6.1.1 CHO-hERG cells were cultured in a 175 cm^2 culture flask, after the cell density was increased to 60-80%, the culture medium was removed, the cells were washed once with 7 mL PBS (Phosphate Buffered Saline), and then 3 mL digestive fluid was added for digestion.
6.1.2 After the digestion was complete, 7 mL of culture medium was added for neutralization, then the mixture was centrifuged, the supernatant was aspirated, and then 5 mL of culture medium was added for resuspention to ensure that the cell density was 2-5×10^6/mL.
The single-cell high-impedance sealing and the whole-cell mode formation process were all automatically completed by the Qpatch instrument of the Shanghai Institute of Materia Medica, Chinese Academy of Sciences. After the whole-cell recording mode was obtained, the cells were clamped at −80 millivolts. […] The data were recorded for 2 minutes, then extracellular fluid was administrated, and then the data were recorded for 5 minutes. […]
The experimental data were analyzed by XLFit software.

[2] = In vivo pharmacokinetics in CD-1 mice; conditions: male CD-1 mice
Experimental: CD-1 mice (male, 7-9 weeks old, Shanghai Slac)
The rodent pharmacokinetic characteristics after intravenous injection and oral administration of the compounds were tested by standard protocols, in the experiment, the candidate compounds were formulated into clear solutions and administrated to mice via a single intravenous injection and oral administration. The vehicle for intravenous injection and oral administration was a mixed solution of 10% of dimethyl sulfoxide and 90% of 10% hydroxypropyl β cyclodextrin. This project used four male CD-1 mice, two mice were administered intravenously, with a dose of 1 mg/kg, and plasma samples were collected at 0 hour (before administration) and 0.0833, 0.25, 0.5, 1, 2, 4, 8, 24 hours after administration. The other two mice were orally administered by gavage, with a dose of 2 mg/kg, plasma samples were collected at 0 hour (before administration) and 0.25, 0.5, 1, 2, 4, 8, 24 hours after administration, whole blood samples were collected within 24 hours, which were centrifuged at 3000 g for 15 minutes, and the supernatants were separated to obtain plasma samples, 4 times volume of acetonitrile solutions containing internal standard were added to precipitate the protein, the mixtures were centrifuged to obtain the supernatants, the supernatants were added with water of equal volume and centrifuged again to take the supernatant for injection, and the blood drug concentration was quantitatively analyzed by the LC-MS/MS analysis method, and pharmacokinetic parameters were calculated, such as max concentration (Cmax), clearance (CL), half-life (T1/2), volumes of distribution (Vdss), the area under the plasma concentration-time curve (AUC0-last), bioavailability (F) etc.

## O=C(O)c1ccc(CN2CCC3(CC2)CC(N[C@@H]2C[C@H]2c2ccccc2)CO3)cc1 (stereo partly drawn) [Hydrochloride of the compound 6]
Human LSD1
  pIC50: 6.48
NCI-H1417 cells
  pIC50: 8.04
[1]
  pIC50: < 4.40
[2]; IV 1 mg/kg, 1 mg/kg
  Half-life T1/2 (IV): 1.54 h
[2]; male, CD-1, mouse, plasma, iv, 1 mg/kg, study doses 1 mg/kg intravenous, 2 mg/kg oral, read-out: Clearance CL
  clearance: 40.2 mL/min/kg
[2]; male, CD-1, mouse, plasma, iv, 1 mg/kg, study doses 1 mg/kg intravenous, 2 mg/kg oral, read-out: Volumes of distribution Vdss
  Vd: 1.19 L/kg
[2]; male, CD-1, mouse, plasma, study doses 1 mg/kg intravenous, 2 mg/kg oral, route not given, read-out: Max concentration Cmax
  Cmax: 718 nM
[2]; male, CD-1, mouse, plasma, po, 2 mg/kg, PO 2 mg/kg, read-out: The area under the plasma concentration-time curve AUC0-last PO
  AUC(0-t): 0.691 µM·h
[2]; male, CD-1, mouse, plasma, po, 2 mg/kg, oral 2 mg/kg vs intravenous 1 mg/kg, read-out: Bioavailability F
  bioavailability: 33.2%

Source: patent US11649245B2, “Cyclopropylamine compound as LSD1 inhibitor and use thereof” (HELIOEAST PHARMACEUTICAL CO., LTD., priority 2018, dated 2023)
